Measured values reported in patent US20230242526A1 (Zentaur Therapeutics International Limited, priority 2020, published 2023).
pIC50: −log10 of the molar value. Each block holds one compound with its values, some of them ahead of it.

Legend:
[1] = tested on: human breast squamous HCC1806 cell line; assay: CyQUANT Direct cell proliferation assay, HCC1806; type: cell-based; conditions: HCC1806, 168 h, 7 days
Source text: The human ovarian carcinoma OVCAR3 cell line (ATCC HTB-161™) or human breast squamous HCC1806 cell line (ATCC CRL 2335) were obtained from American Type Culture Collection (ATCC), and maintained in culture media according to the supplier's specification.
The CyQUANT® Direct Cell Proliferation Assay Kit (Invitrogen™, catalog No. G35012) was utilized to test the inhibitory activities of the CDK2 inhibitors described in this disclosure against OVCAR3 or HCC1806 tumor cells.
CyQUANT® Direct Cell Proliferation Assay: The spent medium from the purchased tumor cell culture plate was removed and the tumor cells were washed with PBS buffer twice. Trypsin (VWR catalog No. 0458-25G) was added to digest the tumor cells until tumor cells appeared round shaped and to dissociate adherent cells from the plate wall in which they are being cultured. Then RPMI-1640 media (HCC1806, Gibco™ catalog No, A10491-01) with 10% fetal bovine serum (FBS) (Hyclone™ catalog No. SV30160.03), or RPMI-1640 media (OVCAR-3, Gibco™ catalog No. 10370-021) with 20% FBS and 0.01 mg/mL insulin was added to stop the trypsin digestion reaction. The tumor cells were lightly agitated with a liquid transfer pipette to cause tumor cells suspended in the culture media. The cells were counted. The complete medium was used to prepare tumor cell suspension.
OVCAR3 or HCC1806 cells were seeded at 40 μL/well in 384-well plates in growth media containing FBS and cultured 24 hours in the incubator at 37° C., 5% CO2. […] Compound solutions were added by Agilent Bravo liquid handler. […] The control wells contained the growth medium having 0.1% DMSO. Cells were incubated at 37° C., 5% CO2 for 7 days.
CYQUANT Direct Cell Proliferation Assay (Molecular Probes, Eugene, Oreg.) was then performed following manufacturer's instructions to prepare the detection reagents. 50 μL of detection reagent was aliquot and added to each well and the cells were incubated at 37° C. for 1 hr.
The cell culture plates were placed on TECAN M1000 microplate reader to detect the fluorescence intensity at 508 nm excitation and 527 nm emission wavelengths. Graphpad Prism 6.0 software was used for data processing, preparing cell growth curve, calculating percentage inhibition on cell growth. IC50 values were calculated by concentration-response curve fitting utilizing a four-parameter analytical method using GraphPad Prism software.

HCC1806 s.c. xenografts = assay: HCC1806 s.c. breast cancer xenograft efficacy (tumor volume, relative tumor volume, tumor weight, TGI); type: in vivo, BALB/c nude mice; conditions: 30 mg/kg P.O. BID; for Tumor Growth Inhibition D3 / Tumor Growth Inhibition D7 / Tumor Growth Inhibition D10 / Tumor Growth Inhibition D14 / Tumor Growth Inhibition D17 / Tumor Growth Inhibition D21: vs control vehicle; for Tumor Growth Inhibition D3 / Tumor volume D3: day 3; for Tumor Growth Inhibition D7 / Tumor volume D7: day 7; for Tumor Growth Inhibition D10 / Tumor volume D10: day 10; for Tumor Growth Inhibition D14 / Tumor volume D14: day 14; for Tumor Growth Inhibition D17 / Tumor volume D17: day 17; for Tumor Growth Inhibition D21 / Tumor volume D21: day 21; for Tumor volume D0 / Tumor volume D3 / Tumor volume D7 / Tumor volume D10 / Tumor volume D14 / Tumor volume D17 / Tumor volume D21 / Tumor weight: group mean; for Tumor volume D0: day 0; for Tumor weight: end of the study (Day 21)
Protocol: The in vivo potency of anti-tumor activities of Comp. 4, Comp. 37, Comp. 5, Comp. 28, Comp. 163, and Comp. 164 have been evaluated on the growth of HCC1806 s.c. xenografts in BALB/c nude mice.
The testing compounds Comp. 4, Comp. 37, Comp. 5, Comp. 28, Comp. 163, and Comp. 164 were prepared according the synthetic routes set forth in the above Examples. The testing formulations for compounds Comp. 4, Comp. 37, Comp. 5, Comp. 28, Comp. 163, and Comp. 164 were prepared as liquid formulation in a liquid vehicle containing 0.1% Tween-80 (purchased form Sinopharm Chemical Reagent Co., Ltd, Lot No. 20190322), 0.5% methyl cellulose (purchased from SIGMA, Lot No. SLBR8963V) in water.
A total of 42+8 female BALB/c nude mice were ordered from Shanghai LC Laboratory Animal Co. Ltd. The animals were specific pathogen free and approximately 4-5 weeks old upon arrival at PharmaLegacy Laboratories.
HCC1806 cell cultures were maintained at 37° C. under 5% CO2 in RPMI-1640 medium supplemented with 10% FBS and were subsequently cultured within 10 passages before inoculated into the mice.
(§1) When the average tumor volume reached 80-120 mm^3, 42 tumor-bearing mice were randomized into 7 groups (6 mice per group) according to tumor volume. The grouping day was defined as Day 0. Treatment was applied immediately after grouping animals on the same day.
(§2) The body weight of the testing animals were measured twice a week after grouping. Tumor volumes by the length and width of the tumor were measured by electric calipers and the tumor volume (V) was calculated as follows: V=(length×width^2)/2. The individual relative tumor volume (RTV) was calculated as follows: RTV=Vt/V0, where Vt was the volume on each day, and V0 was the volume at the beginning of the treatment.
Tumors were collected at the end of the study (Day 21), the mice were sacrificed. Tumor was collected, weighed, photographed.
(§3) Results were expressed as mean±S.E.M. Comparisons between two groups were made by corresponding test, p<0.05 were considered to be significant.

[2] = Body weight in the HCC1806 xenograft study; type: in vivo, BALB/c nude mice; conditions: group mean, 30 mg/kg P.O. BID; for Body weight D0: day 0; for Body weight D3: day 3; for Body weight D7: day 7; for Body weight D10: day 10; for Body weight D14: day 14; for Body weight D17: day 17; for Body weight D21: day 21
Protocol: as §1, §2, §3

in vitro = conditions: human, microsomes, pH 7.4, t1/2 human
Protocol: Human liver microsomes (cat. No. 452161), mouse liver microsomes (cat. No. 452701), were purchased from Corning.
Samples were analyzed using LC-MS/MS using a SCIEX API 4000 mass spectrometer coupled with Agilent HPLC analytical system. After separation on a ZORBAX XDB-C18 column (5 μm, 50×2.1 mm, column No. 50-282) using an acetonitrile-water gradient system, peaks were analyzed by mass spectroscopy (MS) using ESI ionization in Q1 and Q3 scan mode.
The LC and MS are all controlled by Analyst software.
The liver microsomes were incubated with 1.0 μM of the testing compound at 37° C. The incubation mixture contained 100 mM PBS buffer (pH=7.4), 3 mM MgCl2 and 1 mM NADPH. The concentration of liver microsome in the incubation mixture was 0.5 mg/mL for testing compound, and 0.2 mg/mL for MDZ and the total volume is 0.2 mL. […] Aliquots were withdrawn at time points of 0 min, 5 min and 20 min for MDZ. The reactions were terminated by transferring the aliquots to a methanol solution containing the internal standard […] for analytical quantification. The quenched samples were analyzed by LC-MS/MS. The incubations were carried out in duplicates. The metabolic stability of the testing compounds by the liver microsomes of human and mice is expressed as elimination half-life (t1/2). The results are shown as the means of duplicate determinations±SD.

pIC50 [1]: 7.18
Compound: [2H]C1(Nc2ncc3cc(C(F)F)c(=O)n([C@@H]4CCC[C@@]4(C)O)c3n2)CCN(S(C)(=O)=O)CC1 [Comp. 99, (−)-6-(difluoromethyl)-8-((1R,2R)-2-hydroxy-2-methylcyclopentyl)-2-((1-(methylsulfonyl)piperidin-4-yl-4-d)amino)pyrido[2,3-d]pyrimidin-7(8H)-one]

pIC50 [1]: 7.08
Compound: [2H]C([2H])([2H])S(=O)(=O)N1CCC(Nc2ncc3cc(C)c(=O)n([C@@H]4CCC[C@@]4(C)O)c3n2)CC1 [Comp. 74, (−)-8-((1R,2R)-2-hydroxy-2-methylcyclopentyl)-6-methyl-2-((1-((methyl-d3)sulfonyl)piperidin-4-yl)amino)pyrido[2,3-d]pyrimidin-7(8H)-one]

pIC50 [1]: 7.17
Compound: [2H]C(F)(F)c1cc2cnc(NC3CCN(S(=O)(=O)C([2H])([2H])[2H])CC3)nc2n([C@@H]2CCC[C@@]2(C)O)c1=O [Comp. 92, (−)-6-(difluoromethyl-d)-8-((1R,2R)-2-hydroxy-2-methylcyclopentyl)-2-((1-((methyl-d3)sulfonyl)piperidin-4-yl)amino)pyrido[2,3-d]pyrimidin-7(8H)-one]

pIC50 [1]: 7.23
Compound: C[C@@]1(O)CCC[C@H]1n1c(=O)c(C(F)F)cc2cnc(NC3CCN(S(C)(=O)=O)CC3)nc21 (racemic) [Comp. 2, (±)-8-(2-hydroxy-2-methylcyclopentyl)-6-difluoromethyl-2-((1-(methylsulfonyl)piperidin-4-yl)amino)pyrido[2,3-d]pyrimidin-7(8H)-one, reference compound]

Compound: [2H]C([2H])([2H])c1cc2cnc(NC3([2H])C([2H])([2H])CN(S(C)(=O)=O)CC3([2H])[2H])nc2n([C@@H]2CCC[C@@]2(C)O)c1=O [Comp. 164, (−)-8-((1R,2R)-2-hydroxy-2-methylcyclopentyl)-6-(methyl-d3)-2-((1-(methylsulfonyl)piperidin-4-yl-3,3,4,5,5-d5)amino)pyrido[2,3-d]pyrimidin-7(8H)-one]
tumor weight at the end of the study, in words (HCC1806 s.c. xenografts): lighter tumor but no statistic significance
Tumor Growth Inhibition D3 (HCC1806 s.c. xenografts): 29.37%
Tumor Growth Inhibition D7 (HCC1806 s.c. xenografts): 15.49%
Tumor Growth Inhibition D10 (HCC1806 s.c. xenografts): 21.94%
Tumor Growth Inhibition D14 (HCC1806 s.c. xenografts): 18.56%
Tumor Growth Inhibition D17 (HCC1806 s.c. xenografts): 29.97%
Tumor Growth Inhibition D21 (HCC1806 s.c. xenografts): 31.27%
Tumor volume D0 (HCC1806 s.c. xenografts): 112.74 mm^3
Tumor volume D3 (HCC1806 s.c. xenografts): 243.14 mm^3
Tumor volume D7 (HCC1806 s.c. xenografts): 545.66 mm^3
Tumor volume D10 (HCC1806 s.c. xenografts): 817.53 mm^3
Tumor volume D14 (HCC1806 s.c. xenografts): 1209.55 mm^3
Tumor volume D17 (HCC1806 s.c. xenografts): 1380.25 mm^3
Tumor volume D21 (HCC1806 s.c. xenografts): 1610.30 mm^3
Tumor weight (HCC1806 s.c. xenografts): 2.51 g
Body weight D0 [2]: 18.47 g
Body weight D3 [2]: 18.47 g
Body weight D7 [2]: 18.70 g
Body weight D10 [2]: 18.37 g
Body weight D14 [2]: 17.86 g
Body weight D17 [2]: 18.20 g
Body weight D21 [2]: 17.29 g

Compound: [2H]C([2H])([2H])c1cc2cnc(NC3([2H])C([2H])([2H])CN(S(=O)(=O)C([2H])([2H])[2H])CC3([2H])[2H])nc2n([C@@H]2CCC[C@@]2(C)O)c1=O [Comp. 163, (−)-8-((1R,2R)-2-hydroxy-2-methylcyclopentyl)-6-(methyl-d3)-2-((1-((methyl-d3)sulfonyl)piperidin-4-yl-3,3,4,5,5-d5)amino)pyrido[2,3-d]pyrimidin-7(8H)-one]
tumor volume compared with G1 vehicle on each day (HCC1806 s.c. xenografts): significant smaller tumor volume on day 7, 17 and 21
tumor weight at the end of the study, in words (HCC1806 s.c. xenografts): lighter tumor but no statistic significance
Tumor Growth Inhibition D3 (HCC1806 s.c. xenografts): 38.81%
Tumor Growth Inhibition D7 (HCC1806 s.c. xenografts): 34.97%
Tumor Growth Inhibition D10 (HCC1806 s.c. xenografts): 34.46%
Tumor Growth Inhibition D14 (HCC1806 s.c. xenografts): 30.36%
Tumor Growth Inhibition D17 (HCC1806 s.c. xenografts): 36.67%
Tumor Growth Inhibition D21 (HCC1806 s.c. xenografts): 40.94%
Tumor volume D0 (HCC1806 s.c. xenografts): 110.66 mm^3
Tumor volume D3 (HCC1806 s.c. xenografts): 223.62 mm^3
Tumor volume D7 (HCC1806 s.c. xenografts): 443.83 mm^3
Tumor volume D10 (HCC1806 s.c. xenografts): 702.37 mm^3
Tumor volume D14 (HCC1806 s.c. xenografts): 1048.55 mm^3
Tumor volume D17 (HCC1806 s.c. xenografts): 1257.00 mm^3
Tumor volume D21 (HCC1806 s.c. xenografts): 1397.61 mm^3
Tumor weight (HCC1806 s.c. xenografts): 2.20 g
Body weight D0 [2]: 17.54 g
Body weight D3 [2]: 17.61 g
Body weight D7 [2]: 17.72 g
Body weight D10 [2]: 17.67 g
Body weight D14 [2]: 18.32 g
Body weight D17 [2]: 18.66 g
Body weight D21 [2]: 17.95 g

half-life at 1 μM (in vitro): 5.77 h
Compound: [2H]C([2H])([2H])S(=O)(=O)N1CCC(Nc2ncc3ccc(=O)n([C@@H]4CCC[C@@]4(C)O)c3n2)CC1 [Comp. 55, (−)-8-((1R,2R)-2-hydroxy-2-methylcyclopentyl)-2-((1-((methyl-d3)sulfonyl)piperidin-4-yl)amino)pyrido[2,3-d]pyrimidin-7(8H)-one]

pIC50 [1]: 7.07
Compound: [2H]C([2H])([2H])S(=O)(=O)N1CCC(Nc2ncc3cc(C(F)F)c(=O)n([C@@H]4CCC[C@@]4(C)O)c3n2)CC1 [Comp. 85, (−)-6-(difluoromethyl)-8-((1R,2R)-2-hydroxy-2-methylcyclopentyl)-2-((1-((methyl-d3)sulfonyl)piperidin-4-yl)amino)pyrido[2,3-d]pyrimidin-7(8H)-one]

pIC50 [1]: 7.18
Compound: [2H]C1([2H])CN(S(C)(=O)=O)CC([2H])([2H])C1Nc1ncc2cc(C)c(=O)n([C@@H]3CCC[C@@]3(C)O)c2n1 [Comp. 67, (−)-8-((1R,2R)-2-hydroxy-2-methylcyclopentyl)-6-methyl-2-((1-(methylsulfonyl)piperidin-4-yl-3,3,5,5-d4)amino)pyrido[2,3-d]pyrimidin-7(8H)-one]
